# Data from patent publication US11807693B2 (priority 2014, dated 2023).
# Starred links: 1 amine or outer side, 2 acyl side, 3 side chain; linkers in the order of their positions; H or OH if unused. Non-standard residues stand in square brackets, D forms with d. Residues, ends and D or L forms follow the SMILES beside them. *: point of attachment. dBip = N[C@H](Cc1ccc(-c2ccccc2)cc1)C(=O)O; Phe(4-Cl) = N[C@@H](Cc1ccc(Cl)cc1)C(=O)O; γGlu = O=C(O)[C@H](CCC(=O)[*:2])N[*:1]; NMeR = CN[C@@H](CCCNC(=N)N)C(=O)O; Tridecanoyl = CCCCCCCCCCCCC(=O)*; hArg = N=C(N)NCCCC[C@H](N)C(=O)O; Cha = N[C@@H](CC1CCCCC1)C(=O)O; β3hV = CC(C)[C@H](N)CC(=O)O; Nle = CCCC[C@H](N)C(=O)O; AEEA = NCCOCCOCC(=O)O
# Legend:
# [1] = In vitro stability in rat plasma; assay type: in vitro ADME
# Experimental: (§1) Apelin peptides were spiked into rat plasma, liver homogenate, and kidney homogenate, which were obtained from commercial sources, to a final concentration of 5 μM. The samples were then incubated at 37° C. over a period of 4 hr. […] In a typical experiment, an aliquot of 100 μL of sample was taken from the incubation vial, followed by addition of 300 μL of MeOH containing internal standard. The quenched sample was centrifuged at 5500 g for 15 min after 15 min vortex in room temperature. The supernatant was then analyzed by high resolution LC-MS. […] In vitro plasma, […], and kidney stability results are shown below in Table 14.
# [2] = In vitro stability in rat liver homogenate; assay type: in vitro ADME; conditions: tissue homogenate
# Experimental: as §1
"remaining at 4 h, 5 μM [1] [%]","remaining at 4 h, 5 μM [2] [%]",Structure (SMILES)
20,0,CCCCCCCCCCCCC(=O)N[C@@H](CCC(=O)NCCOCCOCC(=O)NCCOCCOCC(=O)N[C@@H](CCC(N)=O)C(=O)N[C@@H](CCCCNC(=N)N)C(=O)N1CCC[C@H]1C(=O)N(C)[C@@H](CCCNC(=N)N)C(=O)N[C@@H](CC(C)C)C(=O)N[C@@H](CO)C(=O)N[C@@H](Cc1c[nH]cn1)C(=O)N[C@@H](CCCCN)C(=O)NCC(=O)N1CCC[C@H]1C(=O)N[C@@H](CCCC)C(=O)N1CCC[C@H]1C(=O)N[C@@H](Cc1ccc(Cl)cc1)C(=O)O)C(=O)O [compound 353]
64,0,CCCCCCCCCCCCC(=O)N[C@@H](CCC(=O)NCCOCCOCC(=O)NCCOCCOCC(=O)N[C@@H](CCC(N)=O)C(=O)N[C@@H](CCCNC(=N)N)C(=O)N1CCC[C@H]1C(=O)N[C@@H](CCCCNC(=N)N)C(=O)N[C@@H](CC(C)C)C(=O)N[C@@H](CO)C(=O)N[C@@H](Cc1c[nH]cn1)C(=O)N[C@@H](CCCCN)C(=O)NCC(=O)N1CCC[C@H]1C(=O)N[C@@H](CCCC)C(=O)N1CCC[C@H]1C(=O)N[C@@H](Cc1ccc(Cl)cc1)C(=O)O)C(=O)O [compound 355]
56,0,CCCCCCCCCCCCC(=O)N[C@@H](CCC(=O)NCCOCCOCC(=O)NCCOCCOCC(=O)N[C@@H](CCC(N)=O)C(=O)N[C@@H](CCCCNC(=N)N)C(=O)N1CCC[C@H]1C(=O)N[C@@H](CCCCNC(=N)N)C(=O)N[C@@H](CC(C)C)C(=O)N[C@@H](CO)C(=O)N[C@@H](Cc1c[nH]cn1)C(=O)N[C@@H](CCCCN)C(=O)NCC(=O)N1CCC[C@H]1C(=O)N[C@@H](CCCC)C(=O)N1CCC[C@H]1C(=O)N[C@@H](Cc1ccc(Cl)cc1)C(=O)O)C(=O)O [compound 357]
31,< 1,CCCCCCCCCCCCC(=O)N[C@@H](CCC(=O)NCCOCCOCC(=O)NCCOCCOCC(=O)N[C@@H](CCC(N)=O)C(=O)N[C@@H](CCCCNC(=N)N)C(=O)N1CCC[C@H]1C(=O)N(C)[C@@H](CCCNC(=N)N)C(=O)N[C@H](CC(=O)N[C@@H](CO)C(=O)N[C@@H](Cc1c[nH]cn1)C(=O)N[C@@H](CCCCN)C(=O)NCC(=O)N1CCC[C@H]1C(=O)N[C@@H](CCCC)C(=O)N1CCC[C@H]1C(=O)N[C@@H](Cc1ccc(Cl)cc1)C(=O)O)C(C)C)C(=O)O [compound 383] ({Tridecanoyl-γGlu-AEEA-AEEA}-Q[hArg]P[NMeR][β3hV]SHKGP[Nle]P[Phe(4-Cl)]-OH)

# Further lines, the compound ahead of its results:
Structure (SMILES),"remaining at 4 h, 5 μM [1] [%]","remaining at 4 h, 5 μM [2] [%]"
CSCC[C@H](NC(=O)[C@@H](N)CS)C(=O)N1CCC[C@H]1C(=O)N[C@@H](CC(C)C)C(=O)N[C@@H](Cc1cnc[nH]1)C(=O)N[C@@H](CO)C(=O)N[C@@H](CCCNC(=N)N)C(=O)N[C@H](C(=O)N1CCC[C@H]1C(=O)N[C@@H](Cc1ccccc1)C(=O)N1CCC[C@H]1C(=O)O)C(C)C [compound 13],7,< 1
CCCC[C@H](NC(=O)[C@@H]1CCCN1C(=O)CNC(=O)[C@H](CCCCN)NC(=O)[C@H](Cc1c[nH]cn1)NC(=O)[C@H](CO)NC(=O)[C@H](CC(C)C)NC(=O)[C@H](CCCNC(=N)N)NC(=O)[C@@H]1CCCN1C(=O)[C@H](CCCNC(=N)N)NC(=O)[C@H](CCC(N)=O)NC(=O)[C@H](CCCNC(=N)N)NC(C)=O)C(=O)N1CCC[C@H]1C(=O)N[C@H](Cc1ccc(-c2ccccc2)cc1)C(=O)O [compound 62] (Ac-RQRPRLSHKGP[Nle]P[dBip]-OH),6.3,< 1
CCCC[C@H](NC(=O)[C@@H]1CCCN1C(=O)CNC(=O)[C@H](CCCCN)NC(=O)[C@H](Cc1c[nH]cn1)NC(=O)[C@H](CO)NC(=O)[C@H](CC1CCCCC1)NC(=O)[C@H](CCCNC(=N)N)N(C)C(=O)[C@@H]1CCCN1C(=O)[C@H](CCCNC(=N)N)NC(=O)[C@H](CCC(N)=O)NC(=O)[C@H](CCCNC(=N)N)NC(C)=O)C(=O)N1CCC[C@H]1C(=O)N[C@@H](Cc1ccc(Cl)cc1)C(=O)O [compound 66] (Ac-RQRP[NMeR][Cha]SHKGP[Nle]P[Phe(4-Cl)]-OH),2.4,
